Reference: patent publication US20090029966A1, “COMBINATION THERAPY WITH PARP INHIBITORS” (ABBOTT LABORATORIES, priority 2006, published 2009)

Experiments:
[1] = tested on: MX-1 breast carcinoma xenograft; assay: MX-1 breast carcinoma xenograft, combination with carboplatin; type: in vivo, scid mice
Source text: The MX-1 breast carcinoma xenograft model in scid mice was used to test the ability of A-861695 to potentiate the efficacy of platinum-based agents. This cell line was derived from a person with a poorly differentiated mammary carcinoma. MX-1 is sensitive to cytotoxic agents. Carboplatin, a second-generation platinum containing anticancer drug, is currently the standard of care for treating lung, ovarian, and head and neck cancers. MX-1 tumors are sensitive to carboplatin. […] Mice were randomized into treatment groups of 8-10 mice per group. […] A-861695 was administered at 25 mg/kg/day s.c., via 14-day osmotic minipumps (OMPs) starting on day 17. Carboplatin was given i.p., on day 20, 24 and 27.

[2] = tested on: MX-1 breast carcinoma xenograft; assay: MX-1 breast carcinoma xenograft, combination with cisplatin; type: in vivo, nude mice
Procedure: In this study the efficacy of A-861695 in combination with cisplatin was evaluated in the MX-1 breast carcinoma xenograft model in nude mice. Tumors were size-matched to 100 mm^3 on day 16 and PARP inhibitor therapy (p.o., b.i.d. ×8) was initiated the same day. A single dose of cisplatin at 6.0 mg/kg/day was administered i.p. day 18. Data, shown in FIG. 5, are mean±S.E.M. of 9 mice per treatment group.

tumor = assay: Valproic acid and radiotherapy (FIG. 6); type: in vivo; details: single and combined administration of valproic acid and radiotherapy
HCT-116 tumors = HCT-116 tumors in nude mice, combination with radiotherapy; type: in vivo; details: 6.25, 12.5 or 25 mg/kg/day i.p. OMP 14 days + radiation 2 Gy/day x 10 doses; compared to radiotherapy or compound alone
Procedure: This study was done in nude mice bearing HCT-116 tumors in the leg. Three days (−3) prior to the beginning of radiotherapy, mice were implanted i.p with OMPs delivering A-620223 at 0, 6.25, 12.5, or 25 mg/kg/day for 14 days. Starting day 0 mice received radiation treatment (2 Gy/day) for 10 doses alone or in combination with the 3 different doses of 2-(N-propylpiperidin-4-yl)benzimidazole-4-carboxamide.

DoHH-2 cells = assay: B-cell lymphoma (DoHH-2 cell) flank xenograft; details: for Mean Tumor Volume Day 27 mm^3 ± SE: ABT-888 25 mg/kg/day PO BID 7 days, Temozolomide 50 mg/kg/day PO QD 5 days, tumor size at start 503 mm^3; for % T/C Day 28 (dosing 11 days): treatment group/corresponding vehicle group x 100
Procedure: Animals were size matched on day 15 to an approximate tumor volume of 503 mm^3.
Group mouse weights were recorded three times a week to monitor for weight loss due to toxicity or excessive tumor burden.

B16F10 murine melanoma = assay: B16F10 murine melanoma, combination with TMZ; type: in vivo, C57BL/6 mice; details: A-861695 25, 12.5 or 3.1 mg/kg/day p.o. b.i.d. days 1-14 + TMZ 62.5 mg/kg/day p.o. q.d. x5
Procedure: This study was done on mice with B 16F 10 murine melanoma. Mice were divided into six treatment groups with 8-10 mice per group. See figure two for treatment groups. B16F10 cells were injected s.c. into C57BL/6 mice on day 0. Dosing was initiated on day one. A-861695 was administered p.o., b.i.d. on days 1-14. On days 3-7 temozolomide (TMZ) was administered p.o., q.d. (for the groups receiving both TMZ and A-861695, TMZ was given two hours after the A-861695 was administered).

[3] = tested on: 9 L orthotopic gliosarcoma; assay: 9L orthotopic gliosarcoma, combination with TMZ; type: in vivo, Fisher 344 rats
Procedure: Tumor growth was monitored longitudinally using contrast-enhanced magnetic resonance imaging (MRI). Animal survival was evaluated based on humane euthanasia of rats presenting signs of irreversible illness.

[4] = tested on: intra-cerebellar medulloblastoma xenographs; HSB T-cell ALL; JM1 pre-B ALL; P115 primary AML cells; assay: TMZ and ABT-888 combinations in medulloblastoma xenografts and leukemia cells (FIGS. 7-11); type: in vivo, mice; details: differing amounts of TMZ and ABT-888 combinations
[5] = tested on: PC3M-Luc human prostate carcinoma; assay: Orthotopic PC3M-Luc human prostate carcinoma model (BLI); type: in vivo, male SCID-C.B17 mice; details: TMZ 50 mg/kg/day alone or with ABT-888 25 mg/kg/day
Procedure: Bioluminescent PC-3M-luciferase-C6 osteolytic human prostate cancer cells, constitutively expressing luciferase (Caliper Life Sciences, Hopkinton, Mass.) were orthotopically injected into the prostates of ˜10-week-old male SCID-C.B17 mice (C.B-17/IcrCrl-scid-BR, Charles River Labs). Mice were housed in a facility with constant humidity, temperature and a 12-h light-dark cycle. Mice were anesthetized with intramuscular injections of ketamine (40 mg/kg) and rompum (5 mg/kg) before surgery. The surgical region was shaved and sterilized with iodine and alcohol swabs. A lower midline incision was made to access the prostate. The left lobe of the dorsal prostate was injected with 1×10^6 PC3M-Luc cells (975 photon/second/cell) in 30 μl (1:1 matrigel, Collaborative Biomedical Products, Bedford, Mass.). The peritoneal cavity was closed with 4-0 suture and skin incision was closed with clip.
In vivo bioluminescent image (BLI) was performed with an IVISR Imaging System (Caliper Life Sciences, Hopkinton, Mass.). […] Images and measurements of bioluminescent signals were acquired and analyzed using Living Image® software (Caliper Life Sciences, Hopkinton, Mass.). Uniform region of interests (ROIs) were used across all groups and time points to achieve quantification of bioluminescent signal. […] The mice were then monitored with this system at weekly intervals. […]

[6] = TMZ 50 PO q.d x 5, ABT-888/TMZ 25/50 mg/kg/day po b.i.d./po q.d., normalized BLI post size match

## N.N.O=C([O-])C1(C(=O)[O-])CCC1.[Pt+2] [carboplatin, reference compound]
[1]; carboplatin 5, 10, 15 mg/kg/day i.p. day 20, 24, 27
  tumor inhibition as a single agent (FIG. 4): dose-dependent tumor inhibition

## N.N.[Cl][Pt][Cl] [cisplatin, reference compound]
[2]; cisplatin monotherapy 6.0 mg/kg/day i.p. day 18
  cures (no measurable tumors at end of the trial): 3/9

## CCCC(CCC)C(=O)O [valproic acid]
tumor
  effect on radiotherapy (FIG. 6): can enhance the effects of radiotherapy

## CCCN1CCC(c2nc3cccc(C(N)=O)c3[nH]2)CC1 [2-(N-propylpiperidin-4-yl)benzimidazole-4-carboxamide]
HCT-116 tumors
  reduction of tumor size in combination with radiotherapy (FIG. 1): significant improvement in the reduction of tumor size

## C[C@]1(c2nc3c(C(N)=O)cccc3[nH]2)CCCN1 [ABT-888, 2-[(2R)-2-methylpyrrolidin-2-yl]-1H-benzimidazole-4-carboxamide]
[1]; A-861695 25 mg/kg/day s.c. OMP 14 days + carboplatin 10 and 15 mg/kg/day
  potentiation of carboplatin (tumor volumes, FIG. 4): pronounced potentiation of carboplatin
[2]; A-861695 5 mg/kg/day p.o. b.i.d. x8 + cisplatin 6.0 mg/kg/day i.p. day 18
  cures (no measurable tumors at end of the trial): 8/9
[2]; A-861695 25 mg/kg/day p.o. b.i.d. x8 + cisplatin 6.0 mg/kg/day i.p. day 18
  cures (no measurable tumors at end of the trial): 8/9
[2]; A-861695 50 mg/kg/day p.o. b.i.d. x8 + cisplatin 6.0 mg/kg/day i.p. day 18
  cures (no measurable tumors at end of the trial): 6/9
[2]; dose-response 5, 25, 50 mg/kg/day
  dose at which maximal potentiation of cisplatin was reached: 5 mg/kg/day
DoHH-2 cells
  Mean Tumor Volume Day 27 mm^3 ± SE: 2970 ± 410 mm^3
  % T/C Day 28 (dosing 11 days): 127 (—) %
DoHH-2 cells; toxicity assessment in Scid female mice
  Observations: None
B16F10 murine melanoma
  potentiation of TMZ efficacy (FIG. 2): significantly potentates the TMZ efficacy in a dose dependent manner
[3]; A-861695 50 mg/kg/day + TMZ 17.5 mg/kg/day, day 14, p<0.005
  tumor volume reduction better than TMZ alone: 44%
[3]; A-861695 50 mg/kg/day p.o. b.i.d. in combination with TMZ 17.5 mg/kg/day p.o. q.d., MRI
  reduction of tumor volume (day 14): 63%
[3]; A-861695 18 or 50 mg/kg/day with TMZ, p<0.005 Log-rank test
  animal survival: significantly prolonged animal survival
Compared to other PARP inhibitors
  bioavailability in brain tissue: improved bioavailability in brain tissue
rat, in vivo
  blood brain barrier: crosses the blood brain barrier
[4]
  effect on toxicity of TMZ (FIGS. 7-11): enhancement of toxicity of TMZ

## Cn1nnc2c(C(N)=O)ncn2c1=O [TMZ, temozolomide]
DoHH-2 cells
  Mean Tumor Volume Day 27 mm^3 ± SE: 2202 ± 253 mm^3
  % T/C Day 28 (dosing 11 days): 94%
DoHH-2 cells; tumor growth inhibition vs vehicle
  % TGI Day 28 (dosing 11 days): 6%
MDA-231-LN-luc cells; [6]
  Day 12 % Tumor change (BLI): 66 ± 76%
  Day 30 % Tumor change (BLI): 1217 ± 560%
MDA-231-LN-luc cells; after last dose of 2nd cycle
  Weight loss (Observations): >10% after last
MDA-231-LN-luc cells; three cycles of 5 days with 11 days of rest, n=11
  Mortality: 0/11
[5]
  efficacy after second treatment schedule (day 55): no efficacy
